Biological target: T1, IL-17A/A (Homo sapiens, UniProt Q16552)
T1 construct: purchased Genscript Z03228
T1 sequence (Q16552 24-155): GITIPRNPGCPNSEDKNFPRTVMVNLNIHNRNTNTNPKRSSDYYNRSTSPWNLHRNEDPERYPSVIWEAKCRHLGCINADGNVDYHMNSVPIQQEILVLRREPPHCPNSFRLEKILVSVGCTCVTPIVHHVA
Experiment: HEK-Blue IL-17A/A inhibition assay (SEAP reporter)
Format: cell-based
Conditions: HEK-Blue cells (HEK 293 expressing IL-17RA, IL-17RC, Act1); IL-17A/A stimulation; 20 hours; SEAP read at A630; 4-parameter fit
Method: The HEK-Blue #NC108637 […]. Cells were grown and prepared for assays according to the manufacturer's instructions. This cell line consists of HEK 293 cells that were designed to expressed IL-17R^A, IL-17RC, and the ActI adapter molecule, the combination of which. when stimulated by IL-17A/A activates a NFtcB promoter and drives expression of a recombinant Secreted Alkaline Phosphatase (SEAP) geneprotein. Media from the cells is then added to a development reagent (Quanti-Blue Substrate, Fisher #NC971 1613), and read at A630.
Compounds were titrated in DMSO. with a top final compound concentration of 10 uM, 1 uM, or 0.3 uM, and added to the cells immediately before adding IL-17A/A (Genscript #Z03228). The cells, compound, and IL-17A/A were then incubated for 20 hours before media was removed for SEAP analysis. The resulting inhibition curve was then analyzed using Graphpad Prism 7.0, and IC50 values were determined using a 4-parameter nonlinear fit. DMSO was added to a universal final concentration of 0.1% to optimze background.

Structure (SMILES)	IC50
CCN(CC(F)(F)F)C(=O)C(C)c1ccc(NC(=O)[C@@H](NC(=O)c2ccnn2CC)C2CCCCCC2)c(F)c1 (single isomer, unassigned) [Compound 69]	> 1 µM
CCn1nccc1C(=O)N[C@H](C(=O)Nc1cc(C)c(C(C)C(=O)N(C)CC(F)(F)F)cc1F)C(C1CC1)C1CC1 (single isomer, unassigned) [Compound 77]	0.1 to 1 µM
CCC(C1CCC1)[C@H](NC(=O)c1ccnn1CC)C(=O)Nc1ccc([C@H](C)C(=O)NCC(F)(F)F)cc1F (single isomer, unassigned) [Compound 86]	0.1 to 1 µM
CCC(C1CCC1)[C@H](NC(=O)c1ccnn1CC)C(=O)Nc1ccc([C@H](C)C(=O)NCC(F)(F)F)cc1F (single isomer, unassigned) [Compound 87]	0.1 to 1 µM
CC(CN1CCOCC1)n1nccc1C(=O)N[C@H](C(=O)Nc1ccc([C@H](C)C(=O)NCC(F)(F)F)cc1F)C(C1CC1)C1CC1 (single isomer, unassigned) [Compound 92]	0.1 to 1 µM
CC(CN1CCOCC1)n1nccc1C(=O)N[C@H](C(=O)Nc1ccc([C@H](C)C(=O)NCC(F)(F)F)cc1F)C(C1CC1)C1CC1 (single isomer, unassigned) [Compound 93]	0.1 to 1 µM
C[C@H](C(=O)NCC(F)(F)F)c1ccc(NC(=O)[C@@H](NC(=O)c2ccnn2C2CCCNC2)C(C2CC2)C2CC2)c(F)c1 (single isomer, unassigned) [Compound 96]	> 1 µM
C[C@H](C(=O)NCC(F)(F)F)c1ccc(NC(=O)[C@@H](NC(=O)c2ccnn2C2CCCNC2)C(C2CC2)C2CC2)c(F)c1 (single isomer, unassigned) [Compound 97]	> 1 µM
Cc1cc(NC(=O)[C@@H](NC(=O)c2ccnn2C(C)C)C(C2CC2)C2CC2)c(F)cc1[C@@H](C)C(=O)NCC(F)(F)F (single isomer, unassigned) [Compound 99]	> 1 µM
CCn1nccc1C(=O)N[C@H](C(=O)Nc1ccc(C(COC)C(=O)N(C)CC(F)(F)F)cc1F)C1CCCCCC1 (single isomer, unassigned) [Compound 102, N—((I S)-1-cycloheptyl-2-((2-fluoro-4-(3-methoxy-1-(methyl(2,2,2-trifluoroethyl)amino)-1-oxopropan-2-yl)phenyl)amino)-2-oxoethyl)-1-ethyl-1H-pyrazole-5-carboxamide]	> 1 µM
COCC(C(=O)NCC(F)(F)F)c1ccc(NC(=O)[C@@H](NC(=O)c2ccnn2C(C)C)C(C2CC2)C2CC2)c(F)c1 (single isomer, unassigned) [Compound 104]	> 1 µM
CC(C(=O)NCC(F)(F)F)c1cc(F)c(NC(=O)[C@@H](NC(=O)c2ccnn2C(C)C)C(C2CC2)C2CC2)cc1Cl (single isomer, unassigned) [Compound 108]	0.1 to 1 µM
CC(C(=O)NCC(F)(F)F)c1cc(F)c(NC(=O)[C@@H](NC(=O)c2ccnn2C(C)C)C(C2CC2)C2CC2)cc1Cl (single isomer, unassigned) [Compound 109]	0.1 to 1 µM
CC(C(=O)NCC(F)(F)F)c1cc(F)c(NC(=O)[C@@H](NC(=O)c2ccnn2C(C)C)C(C2CC2)C2CC2)cc1C#N (single isomer, unassigned) [Compound 115]	0.1 to 1 µM
CC(C(=O)NCC(F)(F)F)c1cc(F)c(NC(=O)[C@@H](NC(=O)c2ccnn2C(C)C)C(C2CC2)C2CC2)cc1C(N)=O (single isomer, unassigned) [Compound 116]	> 1 µM
CC(C(=O)NCC(F)(F)F)c1cc(F)c(NC(=O)[C@@H](NC(=O)c2ccnn2C(C)C)C(C2CC2)C2CC2)cc1C(N)=O (single isomer, unassigned) [Compound 117]	0.1 to 1 µM
CC(C(=O)NCC(F)(F)F)c1cc(F)c(NC(=O)[C@@H](NC(=O)c2ccnn2C(C)C)C(C2CC2)C2CC2)cc1C#N (single isomer, unassigned) [Compound 118]	> 1 µM
CC(C(=O)NCC(F)(F)F)c1cc(F)c(NC(=O)[C@@H](NC(=O)c2ccnn2C(C)C)C(C2CC2)C2CC2)cc1C(F)(F)F (single isomer, unassigned) [Compound 121]	> 1 µM
COc1cc(NC(=O)[C@@H](NC(=O)c2ccnn2C(C)C)C(C2CC2)C2CC2)c(F)cc1C(C)C(=O)NCC(F)(F)F (single isomer, unassigned) [Compound 122]	> 1 µM
COCc1cc(NC(=O)[C@@H](NC(=O)c2ccnn2C(C)C)C(C2CC2)C2CC2)c(F)cc1C(C)C(=O)NCC(F)(F)F (single isomer, unassigned) [Compound 125]	> 1 µM

The remaining lines, values ahead:

IC50	Structure (SMILES)
< 0.1 µM	C=Cc1cc(NC(=O)[C@@H](NC(=O)c2ccnn2C(C)C)C(C2CC2)C2CC2)c(F)cc1C(C)C(=O)NCC(F)(F)F (mixture of isomers) [Compound 110, N-((2S)-1,1-dicyclopropyl-3-((2-fluoro-4-(1-oxo-1-((2,2,2-trifluoroethyl)amino)propan-2-yl)-5-vinylphenyl)amino)-3-oxopropan-2-yl)-1-isopropyl-1H-pyrazole-5-carboxamide]
0.1 to 1 µM	CC(C(=O)NCC(F)(F)F)c1cc(F)c(NC(=O)[C@@H](NC(=O)c2ccnn2C(C)C)C(C2CC2)C2CC2)cc1Br (mixture of isomers) [Compound 113, N-((2S)-1-((5-bromo-2-fluoro-4-(1-oxo-1-((2,2,2-trifluoroethyl)amino)propan-2-yl)phenyl)amino)-3,3-dicyclopropyl-1-oxopropan-2-yl)-1-isopropyl-1H-pyrazole-5-carboxamide]
0.1 to 1 µM	CCn1nccc1C(=O)N[C@H](C(=O)Nc1ccc([C@@H](C)C(=O)N(C)CC(F)(F)F)cc1F)C1CCCCCC1 (single isomer, unassigned) [Compound 3]
< 0.1 µM	CCn1nccc1C(=O)N[C@H](C(=O)Nc1ccc([C@H](C)C(=O)N(C)CC(F)(F)F)cc1F)C1CCCCCC1 (single isomer, unassigned) [Compound 4]
< 0.1 µM	CC(C)n1nccc1C(=O)N[C@H](C(=O)Nc1ccc([C@H](C)C(=O)N2CCOCC2C(F)(F)F)cc1F)C(C1CC1)C1CC1 (single isomer, unassigned) [Compound 18]
0.1 to 1 µM	CC(C)n1nccc1C(=O)N[C@H](C(=O)Nc1ccc([C@H](C)C(=O)N2CCOCC2C(F)(F)F)cc1F)C(C1CC1)C1CC1 (single isomer, unassigned) [Compound 19]
0.1 to 1 µM	CC(C)n1nccc1C(=O)N[C@H](C(=O)Nc1ccc([C@H](C)C(=O)N2CCCCC2C(F)(F)F)cc1F)C(C1CC1)C1CC1 (single isomer, unassigned) [Compound 20]
0.1 to 1 µM	CC(C)n1nccc1C(=O)N[C@H](C(=O)Nc1ccc([C@H](C)C(=O)N2CCCCC2C(F)(F)F)cc1F)C(C1CC1)C1CC1 (single isomer, unassigned) [Compound 21]
0.1 to 1 µM	CC(C)n1nccc1C(=O)N[C@H](C(=O)Nc1ccc([C@H](C)C(=O)NC(CO)C(F)(F)F)cc1F)C(C1CC1)C1CC1 (single isomer, unassigned) [Compound 28]
< 0.1 µM	CC(C)n1nccc1C(=O)N[C@H](C(=O)Nc1ccc([C@H](C)C(=O)NC(CO)C(F)(F)F)cc1F)C(C1CC1)C1CC1 (single isomer, unassigned) [Compound 29]
0.1 to 1 µM	CC(C)n1nccc1C(=O)N[C@H](C(=O)Nc1ccc([C@H](C)C(=O)N2CCOC2C(F)(F)F)cc1F)C(C1CC1)C1CC1 (single isomer, unassigned) [Compound 48]
0.1 to 1 µM	CC(C)n1nccc1C(=O)N[C@H](C(=O)Nc1ccc([C@H](C)C(=O)N2CCOC2C(F)(F)F)cc1F)C(C1CC1)C1CC1 (single isomer, unassigned) [Compound 49]
0.1 to 1 µM	CCN(CC(F)(F)F)C(=O)C(C)c1ccc(NC(=O)[C@@H](NC(=O)c2ccnn2CC)C2CCCCCC2)c(F)c1 (single isomer, unassigned) [Compound 70]
< 0.1 µM	CCn1nccc1C(=O)N[C@H](C(=O)Nc1cc(C)c(C(C)C(=O)N(C)CC(F)(F)F)cc1F)C(C1CC1)C1CC1 (single isomer, unassigned) [Compound 76]
< 0.1 µM	Cc1cc(NC(=O)[C@@H](NC(=O)c2ccnn2C(C)C)C(C2CC2)C2CC2)c(F)cc1[C@H](C)C(=O)NCC(F)(F)F (single isomer, unassigned) [Compound 98]
< 0.1 µM	CCn1nccc1C(=O)N[C@H](C(=O)Nc1ccc(C(COC)C(=O)N(C)CC(F)(F)F)cc1F)C1CCCCCC1 (single isomer, unassigned) [Compound 103]
< 0.1 µM	COCC(C(=O)NCC(F)(F)F)c1ccc(NC(=O)[C@@H](NC(=O)c2ccnn2C(C)C)C(C2CC2)C2CC2)c(F)c1 (single isomer, unassigned) [Compound 105]
< 0.1 µM	CC(C(=O)NCC(F)(F)F)c1cc(F)c(NC(=O)[C@@H](NC(=O)c2ccnn2C(C)C)C(C2CC2)C2CC2)cc1C(F)(F)F (single isomer, unassigned) [Compound 120]
< 0.1 µM	COc1cc(NC(=O)[C@@H](NC(=O)c2ccnn2C(C)C)C(C2CC2)C2CC2)c(F)cc1C(C)C(=O)NCC(F)(F)F (single isomer, unassigned) [Compound 123]
< 0.1 µM	COCc1cc(NC(=O)[C@@H](NC(=O)c2ccnn2C(C)C)C(C2CC2)C2CC2)c(F)cc1C(C)C(=O)NCC(F)(F)F (single isomer, unassigned) [Compound 124]
